Experiments:
[1] = Solubility of SH compounds in the enzyme solution; details: as CK reactivator in the enzyme solution
[2] = target: T1, creatine kinase (CK) in human serum (Homo sapiens, UniProt P06732); assay: Inhibitory effect of oxidized products of SH compounds on CK activity (HK/G6PDH UV method, NAC 26 mM as reactivator); assay type: biochemical; details: for CK activity value: NAC 26 mM, 37° C.
T1 construct: Five fresh human serum samples were used; from tissue; host or cells: fresh human serum
Protocol: Investigation on the inhibitory effect of oxidized products of SH compounds on CK activity
Thus, oxidized products of the SH compounds, respectively, were obtained.
NAC (26 mM) as CK reactivator, each 5 mM of SH compound oxidized product obtained above, 2.6 mM of ADP, 3.9 u/ml of HK (available from Oriental Yeast Co., Ltd.), 8.0 u/ml of G6PDH (available from Oriental Yeast Co., Ltd.), 2.6 mM of NADP, 21 mM of glucose, 10 mM of magnesium acetate, 6.5 mM of AMP, 0.013 mM of APSA, 0.1% (w/v) of sodium azide and 2 mM of EDTA-2Na were dissolved in 128 mM imidazole-acetate buffer (pH 6.7). The thus obtained solutions were adjusted to pH 6.7 with sodium hydroxide to obtain enzyme solutions.
An enzyme solution containing no SH compound oxidized product was prepared as a control standard solution.
Five fresh human serum samples were used.
To 8 μl of each sample was added 320 μl of each enzyme solution, followed by preincubation for 5 minutes. Then, 80 μl of the substrate solution was added to initiate the reaction and the change of absorbance per minute was measured for 3 minutes from 2 minutes after the addition of the substrate solution. The CK activity value was calculated from the molecular extinction coefficient of the NADPH produced.
As a measuring apparatus, an Autoanalyzer Hitachi Model 7150 was used, and the measurement was carried out at 37° C. by use of dual wavelength (λ1 =405 nm, λ2 =340 nm).
Tables 2 and 3 show the CK activity values of the 5 samples in each case and the average thereof.

CK activity = details: Scand. J. Clin. Lab. Invest. 39, 737-742 (1979); cited from earlier work

T1 sequence (P06732 whole entry): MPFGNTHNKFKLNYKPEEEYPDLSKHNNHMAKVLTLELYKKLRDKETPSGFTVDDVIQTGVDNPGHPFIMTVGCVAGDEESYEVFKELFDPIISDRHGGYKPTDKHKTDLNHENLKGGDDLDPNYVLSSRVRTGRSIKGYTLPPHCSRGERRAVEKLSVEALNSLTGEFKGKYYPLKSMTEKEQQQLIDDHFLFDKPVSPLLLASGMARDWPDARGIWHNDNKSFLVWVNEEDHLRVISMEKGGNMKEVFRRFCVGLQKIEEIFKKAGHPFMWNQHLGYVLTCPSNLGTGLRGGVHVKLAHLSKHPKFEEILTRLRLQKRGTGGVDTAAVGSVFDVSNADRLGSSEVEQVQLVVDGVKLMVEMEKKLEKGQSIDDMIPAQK

CK activity value ([2]; Sample 1 (fresh human serum), 5 mM SH compound oxidized product) | CK activity value ([2]; Sample 2, 5 mM SH compound oxidized product) | CK activity value ([2]; Sample 3, 5 mM SH compound oxidized product) | CK activity value ([2]; Sample 4, 5 mM SH compound oxidized product) | CK activity value ([2]; Sample 5, 5 mM SH compound oxidized product) | CK activity value, Average ([2]; average of 5 samples, 5 mM SH compound oxidized product) | activity at 5000 µM ([2]; average with enzyme solution containing no SH compound oxidized product = 100%, 5 mM oxidized product, read-out: CK activity, relative value) | SMILES | solubility [1] | effect on CK activity (CK activity)
 |  |  |  |  |  |  | Nc1cc(O)nc(S)n1.O [AHMP, 4-amino-6-hydroxy-2-mercaptopyrimidine monohydrate] | low solubility | 
124 IU/l. | 342 IU/l. | 87 IU/l. | 272 IU/l. | 80 IU/l. | 181 IU/l. | 80.1% | CC(=O)N[C@@H](CSSC[C@H](NC(C)=O)C(=O)O)C(=O)O [NAC oxidized product] |  | inhibits CK activity

From patent US5716797A, “Stable two-part reagent for the measurement of creatine kinase activity” (Wako Pure Chemical Industries, Ltd., priority 1995, dated 1998)
